Tests used:
[1] = tested on: a strand of SEQ ID NO:1; experiment: Specific hybridization of LDLR adaptin domain-encoding polynucleotides under stringent conditions; assay type: binding, human; design: key: +: hybridize with a strand of SEQ ID NO:1 under Conditions I and/or II; conditions: Conditions I and/or II
From the text: These natural sequence LDLR adaptin polynucleotides provide hybridization probes and replication/amplification primers having a disclosed LDLR adaptin domain encoding cDNA sequence or fragments thereof sufficient to effect specific hybridization thereto. Such primers or probes are at least 12, preferably at least 24, more preferably at least 36 and most preferably at least 96 bases in length.

[2] = target: T1, GST-PTB domain fusion protein (Homo sapiens, UniProt Q5SW96); experiment: Fluorescence polarization binding of fluorescent LDLR peptide probe to the PTB domain
T1 construct: made in house
T1 sequence (Q5SW96 48-175): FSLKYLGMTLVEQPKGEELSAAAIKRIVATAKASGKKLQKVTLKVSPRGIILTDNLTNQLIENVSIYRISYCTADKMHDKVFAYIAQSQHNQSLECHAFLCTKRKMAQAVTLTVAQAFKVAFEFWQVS
Method: Peptide binding to the GST-PTB domain fusion protein is measured by using fluorescence polarization (also known as fluorescence anisotropy; Li, et al. 1997 Proc. Natl. Acad. Sci. USA 94:7204-7209) is a protocol adapted from Howell et al. 1999 Mol Cell Biol 19, 5179-5188. A16-mer LDLR peptide (acetyl-SINFDNPVYQKTTEDE-amide, residues 820-835 of SEQ ID NO:8) and its phosphorylated analog (phosphate on the tyrosine) are synthesized with an AMS 222 Multiple Peptide Synthesizer using TenetaGel S resin (Rapp Polymere) and purified by high-pressure liquid chromatography. Peptide concentrations are determined by spectrophotometry and confirmed by amino acid analysis. […] Reactions are stopped with 5 μmol of Tris HCl (pH 8.0) and analyzed by thin-layer chromatography (Silica gel 60; methanol-acetic acid-water [4:1:1]). […] Based on fluorescence intensity, the fluorescent peptide (probe) concentration in binding reaction mixtures was estimated to be 20 nM.
Binding measurements are performed in a Beacon 2000 Variable Temperature Fluorescence Polarization System (PanVera Corporation). Essentially, a constant concentration of fluorescent probe peptide is incubated with various concentrations of the GST-PTB domain or GST in 100 μl of 0.5% Triton X-100-20 mM glutathione-200 mM Tris HCl (pH 8.0) at 4° C. and fluorescence polarization is measured. […]

[3] = PTB domain encoding polynucleotides
[4] = CC domain encoding polynucleotides

Row | Substance | Hybridization [1, 3] | other results
1 | SEQ ID NO:1, nucleotides 185-218: LDLR adaptin PTB domain encoding polynucleotide (DNA AGGGTGAGGAGCTGTCGGCCGCCGCCATCAAGAG; chemistry not given here) | + | –
2 | SEQ ID NO:1, nucleotides 799-824: LDLR adaptin CC domain encoding polynucleotide (DNA ACAAACCCTCAGGTCCTGGACACTGG; chemistry not given here) | – | Hybridization [1, 4]: +
3 | SEQ ID NO:1, nucleotides 249-272: LDLR adaptin PTB domain encoding polynucleotide (DNA GAAGCTGCAGAAGGTGACTCTGAA; chemistry not given here) | + | –
4 | SEQ ID NO:1, nucleotides 345-368: LDLR adaptin PTB domain encoding polynucleotide (DNA GATCTCCTATTGCACAGCAGACAA; chemistry not given here) | + | –
5 | SEQ ID NO:1, nucleotides 801-828: LDLR adaptin CC domain encoding polynucleotide (DNA AAACCCTCAGGTCCTGGACACTGGCCTG; chemistry not given here) | – | Hybridization [1, 4]: +
6 | SEQ ID NO:1, nucleotides 442-465: LDLR adaptin PTB domain encoding polynucleotide (DNA TGCACCAAGCGGAAGATGGCACAG; chemistry not given here) | + | –
7 | SEQ ID NO:1, nucleotides 491-511: LDLR adaptin PTB domain encoding polynucleotide (DNA CCTTCAAAGTCGCCTTTGAGT; chemistry not given here) | + | –
8 | SEQ ID NO:1, nucleotides 369-392: LDLR adaptin PTB domain encoding polynucleotide (DNA GATGCACGACAAGGTGTTTGCATA; chemistry not given here) | + | –
9 | SEQ ID NO:1, nucleotides 775-789: LDLR adaptin CC domain encoding polynucleotide (DNA TTTTCGAGGCTTGCC; chemistry not given here) | – | Hybridization [1, 4]: +
10 | SEQ ID NO:1, nucleotides 417-440: LDLR adaptin PTB domain encoding polynucleotide (DNA GAGCCTCGAGTGCCACGCCTTCCT; chemistry not given here) | + | –
11 | SEQ ID NO:1, nucleotides 511-525: LDLR adaptin PTB domain encoding polynucleotide (DNA TTTTGGCAGGTGTCC; chemistry not given here) | + | –
12 | acetyl-SINFDNPVYQKTTEDE-amide (Ac-SINFDNPVYQKTTEDE-NH2; also: fluorescein-C6 label, site not given here) [fluorescent probe peptide] | – | Binding, percent of maximum ([2]; after 5 min at 4° C.): 95%; Hill plot slope ([2]; linear Hill plot, noncooperative binding): 1.0
13 | SEQ ID NO:1, nucleotides 784-809: LDLR adaptin CC domain encoding polynucleotide (DNA CTTGCCCAGTCTCGGACAAACCCTCA; chemistry not given here) | – | Hybridization [1, 4]: +
14 | SEQ ID NO:1, nucleotides 742-770: LDLR adaptin CC domain encoding polynucleotide (DNA GTCTGGGAGCTGGATGATGGCCTGGATGA; chemistry not given here) | – | Hybridization [1, 4]: +
15 | SEQ ID NO:1, nucleotides 297-320: LDLR adaptin PTB domain encoding polynucleotide (DNA GACAGACAACCTCACCAACCAGCT; chemistry not given here) | + | –
16 | SEQ ID NO:1, nucleotides 393-416: LDLR adaptin PTB domain encoding polynucleotide (DNA CATCGCCCAGAGCCAGCACAACCA; chemistry not given here) | + | –
17 | SEQ ID NO:1, nucleotides 142-164: LDLR adaptin PTB domain encoding polynucleotide (DNA TTCAGCCTCAAGTACCTGGGCAT; chemistry not given here) | + | –
18 | SEQ ID NO:1, nucleotides 321-344: LDLR adaptin PTB domain encoding polynucleotide (DNA CATTGAGAACGTGTCCATATACAG; chemistry not given here) | + | –
19 | SEQ ID NO:1, nucleotides 263-286: LDLR adaptin PTB domain encoding polynucleotide (DNA TGACTCTGAAGGTGTCGCCACGGG; chemistry not given here) | + | –

Reference: patent publication US6465196B1, “Drug screen for identifying an agent that modulates low density lipoprotein receptor adaptin-ligand binding” (Board of Regents, The University of Texas System, priority 2001, dated 2002)
